Assay results reported in patent US8404650B2, “Methods of treating cancer with doxazolidine and prodrugs thereof” (priority 2005, dated 2013).

Assays:
[1] = Functional measure of hydrolysis: pre-hydrolysis in RPMI medium or human serum, then growth of MCF-7/Adr cells; type: cell-based; conditions: read out by growth of MCF-7/Adr cells; for half-life at 10 µM: RPMI 1640 medium, RPMI 1640, 37° C., estimated from FIG. 5A, read-out: Half-life in cell culture media
Method: Hydrolysis of Doxaz or DoxF in RPMI medium was performed by dissociating the cells with trypsin/EDTA, counting and then suspending the cells in growth media to a concentration of 5×10^3 cells/mL. This cell suspension was dispensed in 200 μL aliquots (1000 cells/well) into the inside wells of 96-well tissue culture plates. Plates were then incubated for 24 h at 37° C. in a humidified atmosphere of 5% CO2, and 95% air. The medium was replaced with 180 μL of growth medium prior to addition of the drug. RPMI media (no serum added) was divided into 5 mL aliquots in conical vials and heated to 37° C. in a constant temperature bath. Doxaz and DoxF were dissolved in DMSO at a concentration of 1 mM equivalents. The concentration was then corrected by measuring the solution absorbance at 480 nm (ε=11,500 M^−1 cm^−1). Drug solution (50 μl) was added to an individual conical vial and the drug was allowed to hydrolyze (at 10 μM) for 0, 10, 20, 30, 45, 60, 75 or 90 min. Experiments were performed such that all hydrolysis times would end simultaneously. After hydrolysis, 20 μL of the drug solution was added to a lane of wells on the 96-well plate to give a final concentration of 1 μM equivalents (sum of Doxorubicin, Doxaz and/or DoxF) for treatment of cells. Additionally, two lanes were treated with 20 μL of growth medium containing 1% sterile DMSO for a control. The cells were incubated at 37° C. for 3 h, at which time the drug solutions were replaced with 200 μL of fresh growth media. The cells were then incubated for 5 days, and the extent of colony formation was determined using a crystal violet staining assay measuring optical density at 588 and 770 nm.
Hydrolysis of DoxF in RPMI medium or 100% human serum was performed as described above except drug hydrolysis was performed at 1 μM equivalents and drug treatment was at 100 nM equivalents. During drug treatment, the medium was either 90% RPMI/10% FBS or 90% RPMI/10% human serum. During cell growth, the medium was 90% RPMI/10% FBS. […]

cancer cells = conditions: background statement; cited from earlier work
liver cancer = conditions: circumstantial data; treatment of liver cancer; cited from earlier work
Water solubility = type: physicochemical; conditions: as di-cation

Question: Which half-life at 1 µM ([1]; 100% human serum, 100% pooled human serum, 37° C., start 100 nM equivalents, estimated from FIG. 5B) does the source give for `COc1cccc2c1C(=O)c1c(O)c3c(c(O)c1C2=O)C[C@@](O)(C(=O)CO)C[C@@H]3OC1CC2C(OCN2CN2COC3C(C)OC(O[C@H]4C[C@](O)(C(=O)CO)Cc5c(O)c6c(c(O)c54)C(=O)c4c(OC)cccc4C6=O)CC32)C(C)O1` (stereo partly drawn) [DoxF, Doxoform, reference compound] here?
Answer: The half-life at 1 µM was roughly 3 min.

Question: What about the half-life at 10 µM [1] of the same compound?
Answer: Its half-life at 10 µM is roughly 1.5 min.

Question: And the “Anti-tumor activity above Doxorubicin” value (cancer cells)?
Answer: Its value is “approximately 100 fold”.

Question: Which “Improvement relative to Doxorubicin in a clinical trial” value (liver cancer) does the source give for `COc1cccc2c1C(=O)c1c(O)c3c(c(O)c1C2=O)C[C@@](O)(C(=O)CO)C[C@@H]3O[C@H]1C[C@@H]2NCO[C@@H]2[C@H](C)O1` [Doxaz, Doxazolidine] here?
Answer: The value was 75%.

Question: And the half-life at 10 µM [1]?
Answer: The half-life at 10 µM was roughly 1 min.

Question: Which Water solubility (Water solubility) does the source give for `COc1cccc2c1C(=O)c1c(O)c3c(c(O)c1C2=O)C[C@@](O)(C(=O)CO)C[C@@H]3O[C@H]1C[C@H]2[C@H](OCN2C(=O)OCc2ccc(NC(=O)[C@H](CCCCN)NC(=O)[C@H](Cc3ccccc3)NC(=O)[C@@H](C)N)cc2)[C@H](C)O1` [Formula IV, D-Ala-L-Phe-L-Lys-p-aminobenzyloxycarbonyl-Doxaz] here?
Answer: The Water solubility was “excellent water solubility”.
